# From patent US20220323521A1, “Compositions and Uses for Engineered Therapeutic Microbes and Associated Receptors” (The Brigham and Women`s Hospital, Inc., priority 2019, published 2022)
# Tests used:
# human P2Y2 receptor [1] = target: T1, human P2Y2 receptor (Homo sapiens, UniProt P41231); assay: Flow cytometry evaluation of response to ATP and UTP (pFUS1-mCherry mating pathway reporter in yeast strain BS016); type: cell-based; conditions: for EC50: agonist on WT human P2Y2 in Gpa1-Gαi3 pFUS1-mCherry strain
# T1 construct: expressed in transfected cells; host or cells: Saccharomyces cerevisiae strain BS016 (Gpa1-Gαi3 chimera, pFUS1-mCherry reporter), plasmid pRS316 pTDH3
# T1 sequence (P41231 whole entry): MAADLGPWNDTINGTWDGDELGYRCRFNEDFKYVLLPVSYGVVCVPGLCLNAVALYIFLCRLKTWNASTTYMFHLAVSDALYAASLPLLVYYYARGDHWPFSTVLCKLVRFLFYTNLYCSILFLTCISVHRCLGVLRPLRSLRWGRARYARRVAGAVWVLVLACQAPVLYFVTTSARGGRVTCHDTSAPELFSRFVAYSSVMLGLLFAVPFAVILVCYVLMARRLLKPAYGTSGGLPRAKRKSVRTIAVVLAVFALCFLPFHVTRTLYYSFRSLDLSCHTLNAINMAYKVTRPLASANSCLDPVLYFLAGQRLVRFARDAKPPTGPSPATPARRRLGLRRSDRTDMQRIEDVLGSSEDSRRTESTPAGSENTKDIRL
# Protocol: (§1) Flow cytometry evaluation of response to ATP and UTP. Yeast strain BS016 transformed with a human P2Y2 gene in the pRS316 pTDH3 vector was grown in SC-URA liquid media overnight. The same strain transformed with a plasmid not containing a P2Y2 sequence (Vector) was used as a negative control. Cells were diluted to OD600 0.05 in 600 μL SC-URA containing ATP (0-25.6 mM; pH 7.0, Bio Basic) or UTP (0-3.2 mM; pH 7.0, Sigma-Aldrich) and incubated for 6 hours at 30° C. Cells were then treated with cycloheximide to a final concentration of 10 μg/mL. The mCherry signal of at least 10,000 cells was measured for each sample with a Miltenyi Biotec MACSQuant VYB. The mean mCherry fluorescence was determined using FlowJo. For dose-response assays, data was fitted with the “log(agonist) vs. response—Variable slope (four parameters)” model in Prism (GraphPad). After subtracting the mCherry fluorescence signal of the Vector control, fluorescence values were normalized to the wild-type P2Y2 control used in the same experiment, to allow comparisons between experiments performed on different days.
# (§2) Directed evolution of human P2Y2 receptor. Error-prone PCR mutagenesis was performed using the Agilent GeneMorph II Random Mutagenesis Kit with yeast codon-optimized human P2Y2 as a template, using previously described methods (104). 150 ng of template DNA and 30 cycles achieved the desired mutation rate of ˜3 mutations per P2Y2 gene, determined by sequencing 12 randomly selected plasmids (Table 2). The random mutants were inserted into pRS316 pTDH3 using AarI-based cloning and transformed into NEB 5-alpha competent E. coli cells (New England Biolabs) generating >15,000 individual colonies. Cells were scraped off agar plates, mixed together, and plasmid DNA was extracted (QIAQuick Spin Miniprep Kit, Qiagen) to create the final plasmid library. The library was transformed into yeast strain BS016 using a high-efficiency lithium acetate-based method (105), yielding at least 10-fold the number of colonies as the total library size, so that each mutant would be screened multiple times. Transformed cells were incubated overnight, then diluted to OD600 0.05 into fresh 100 mL SC-URA liquid media containing 100 μM ATP (pH 7.0, Biobasic), and incubated for either 18 or 6 hours at 30° C. (FIG. 8). After brief sonication, 10^6-10^7 cells were gated by side and forward scatter and sorted for the highest ˜1% of mCherry signal using a BD Influx cell sorter (106). A total of 174 yeast colonies recovered from various sorting experiments were individually screened for their response to 100 μM UTP, 100 μM ATP, or with no ligand, after a 6-hour incubation. Plasmids were isolated from selected colonies by first incubating with zymolase (BioShop Canada) then extracting plasmid DNA (QIAQuick Spin Miniprep Kit, Qiagen). Plasmid DNA was amplified using NEB 5-alpha competent E. coli cells (New England Biolabs), the plasmid DNA was sequenced, and fresh BS016 yeast cells were transformed for dose-response experiments.
# (§3) Maximum response values were normalized to the maximum mating pathway activation provided by the WT human P2Y2 receptor incubated with eATP. Dynamic range was the ratio of the highest fluorescence obtained in the presence of the indicated ligand versus 10% signal saturation. Linear range was the series of ligand concentrations for which a change in signal can be detected. The minimum limit of the linear range was estimated as the ligand concentration corresponding to 10% signal saturation. Data represents the mean of six colonies for eATP, three colonies for eUTP.
# human P2Y2 receptor [2] = assay: as above; type: cell-based; conditions: for ATP Linear Range μM / ATP Max Response (±SE) / ATP Dynamic Range / ATP Linear Range: ligand eATP; for ATP Max Response (±SE) / UTP Max Response (±SE): normalized to maximum mating pathway activation by WT human P2Y2 receptor with eATP; for ATP Dynamic Range / UTP Dynamic Range: ratio of highest fluorescence versus 10% signal saturation; for UTP Max Response (±SE): unit assumed; for signaling in the absence of agonist (constitutive activity): no agonist; for Follow-up Test Results: response/sensitivity to ATP versus WT, post-sorting follow-up
# Protocol: as §1, §2, §3
# [3] = ligand concentrations for which a change in signal can be detected
# [4] = ligand eUTP, ligand concentrations for which a change in signal can be detected
Molecule,EC50 (human P2Y2 receptor [1]),ATP Linear Range μM (human P2Y2 receptor [2]; [3]),ATP Max Response (±SE) (human P2Y2 receptor [2]),ATP Dynamic Range (human P2Y2 receptor [2]),UTP Linear Range (human P2Y2 receptor [2]; [4]),UTP Max Response (±SE) (human P2Y2 receptor [2]; ligand eUTP),UTP Dynamic Range (human P2Y2 receptor [2]; ligand eUTP),ATP Linear Range (human P2Y2 receptor [2]; [3]),signaling in the absence of agonist (constitutive activity) (human P2Y2 receptor [2]),Follow-up Test Results (human P2Y2 receptor [2]),UTP Linear Range μM (human P2Y2 receptor [2]; [4]),response to 100 μM eATP (mCherry expression) (human P2Y2 receptor [1]; 100 μM eATP)
"O=c1ccn([C@@H]2O[C@H](COP(=O)(O)OP(=O)(O)OP(=O)(O)O)[C@@H](O)[C@H]2O)c(=O)[nH]1 [eUTP, uridine triphosphate, reference compound]",123 µM,–,–,–,–,–,–,–,–,–,–,–
H1-3: human P2Y2 receptor mutant F58I [Mutant H1-3],–,"4-3,945 μM",152%,10,0.4 to 550 µM,122%,8,–,–,–,–,–
TM-3: human P2Y2 receptor mutant N116S,–,–,110%,5,0.04 to 63 µM,86%,5,0.9 to 284 µM,increased responsiveness and signaling in the absence of agonist (constitutive activity),–,–,–
TM-4: human P2Y2 receptor mutant L162I Q165H,–,"0.5-8,950^ μM",137%,10,0.07 to 31 µM,69%,7,–,–,–,–,–
6R1-2: human P2Y2 receptor mutant I214T [Mutant 6R1-2],–,–,–,–,–,–,–,–,–,"No different than WT, not selected for",–,–
"Nc1ncnc2c1ncn2[C@@H]1O[C@H](COP(=O)(O)OP(=O)(O)OP(=O)(O)O)[C@@H](O)[C@H]1O [eATP, adenosine triphosphate, reference compound]",1860 µM,–,–,–,–,–,–,–,–,–,–,–
18R2-2: human P2Y2 receptor mutant L112S A176V [Mutant 18R2-2],–,–,–,–,–,–,–,–,–,"No different than WT, not selected for",–,–
18R2-23: human P2Y2 receptor mutant V250A [Mutant 18R2-23],–,–,–,–,–,–,–,–,–,"No different than WT, not selected for",–,–
H7-1: human P2Y2 receptor mutant K240N F307S [Mutant H7-1],–,–,181%,3,0.02 to 3.1 µM,199%,3,0.3 to 18 µM,increased responsiveness and signaling in the absence of agonist (constitutive activity),–,–,–
H1-2: human P2Y2 receptor mutant F58L [Mutant H1-2],–,"4-4,966 μM",122%,9,0.05 to 22 µM,101%,6,–,–,–,–,–
TM-2: human P2Y2 receptor mutant L59I C119S,–,"3-2,243 μM",165%,9,0.9 to 169 µM,143%,8,–,–,–,–,–
"WT: wild-type human P2Y2 receptor (NP_002555.4), yeast codon-optimized [reference compound]",–,"113-25,600 μM",100%,8,–,98%,9,–,–,–,"4-1,374 μM",weak response
H1-4: human P2Y2 receptor mutant F58L S359P [Mutant H1-4],–,"5-3,882 μM",110%,9,0.2 to 61 µM,96%,7,–,–,–,–,–
"H7-2: human P2Y2 receptor mutant A76T A229V F307S (protein, UniProt P41231 1-377, looked up, variant A76T A229V F307S) P2Y purinoceptor 2: MAADLGPWNDTINGTWDGDELGYRCRFNEDFKYVLLPVSYGVVCVPGLCLNAVALYIFLCRLKTWNASTTYMFHLTVSDALYAASLPLLVYYYARGDHWPFSTVLCKLVRFLFYTNLYCSILFLTCISVHRCLGVLRPLRSLRWGRARYARRVAGAVWVLVLACQAPVLYFVTTSARGGRVTCHDTSAPELFSRFVAYSSVMLGLLFAVPFAVILVCYVLMARRLLKPVYGTSGGLPRAKRKSVRTIAVVLAVFALCFLPFHVTRTLYYSFRSLDLSCHTLNAINMAYKVTRPLASANSCLDPVLYSLAGQRLVRFARDAKPPTGPSPATPARRRLGLRRSDRTDMQRIEDVLGSSEDSRRTESTPAGSENTKDIRL",–,–,90%,2,0.01 to 6 µM,84%,3,0.3 to 23 µM,increased responsiveness and signaling in the absence of agonist (constitutive activity),–,–,–
"18R2-18: human P2Y2 receptor mutant W16R V90A A295V (protein, UniProt P41231 1-377, looked up, variant W16R V90A A295V) P2Y purinoceptor 2: MAADLGPWNDTINGTRDGDELGYRCRFNEDFKYVLLPVSYGVVCVPGLCLNAVALYIFLCRLKTWNASTTYMFHLAVSDALYAASLPLLAYYYARGDHWPFSTVLCKLVRFLFYTNLYCSILFLTCISVHRCLGVLRPLRSLRWGRARYARRVAGAVWVLVLACQAPVLYFVTTSARGGRVTCHDTSAPELFSRFVAYSSVMLGLLFAVPFAVILVCYVLMARRLLKPAYGTSGGLPRAKRKSVRTIAVVLAVFALCFLPFHVTRTLYYSFRSLDLSCHTLNAINMAYKVTRPLVSANSCLDPVLYFLAGQRLVRFARDAKPPTGPSPATPARRRLGLRRSDRTDMQRIEDVLGSSEDSRRTESTPAGSENTKDIRL",–,–,–,–,–,–,–,–,–,inconsistent results,–,–
"H1-1: human P2Y2 receptor mutant F58C C60Y G310A (protein, UniProt P41231 1-377, looked up, variant F58C C60Y G310A) P2Y purinoceptor 2: MAADLGPWNDTINGTWDGDELGYRCRFNEDFKYVLLPVSYGVVCVPGLCLNAVALYICLYRLKTWNASTTYMFHLAVSDALYAASLPLLVYYYARGDHWPFSTVLCKLVRFLFYTNLYCSILFLTCISVHRCLGVLRPLRSLRWGRARYARRVAGAVWVLVLACQAPVLYFVTTSARGGRVTCHDTSAPELFSRFVAYSSVMLGLLFAVPFAVILVCYVLMARRLLKPAYGTSGGLPRAKRKSVRTIAVVLAVFALCFLPFHVTRTLYYSFRSLDLSCHTLNAINMAYKVTRPLASANSCLDPVLYFLAAQRLVRFARDAKPPTGPSPATPARRRLGLRRSDRTDMQRIEDVLGSSEDSRRTESTPAGSENTKDIRL",–,–,149%,5,0.05 to 12 µM,128%,4,0.5 to 184 µM,–,–,–,–
